Source: patent US8598228B2, “Cinnamic acid ascorbates” (Merck Patent GmbH, priority 2009, dated 2013)

Columns and labels:
[1] = UV absorption maximum of product; format: physicochemical
Experimental: 20 g of (E)-3-(2,4,5-trimethoxyphenyl)acrylic acid (84 mmol; 1 eq.) are dissolved in 100 ml of dimethylformamide in an argon-flushed three-necked flask, and 11.1 g of diisopropylcarbodiimide (88.1 mmol, 1.05 eq.) are added. After 30 min, ascorbic acid (22.2 g, 126 mmol; 1.5 eq.) dissolved in 45 ml of dimethylformamide is added dropwise. After 30 min at 0° C., the mixture is stirred at room temperature for a further 6 hours. The reaction solution is evaporated to dryness, suspended in ethyl acetate/hexane 1:1 and filtered, and the product is precipitated as a pale-yellow solid by addition of hexane (λmax=354 nm).

[2] = cited from earlier work; for specific absorbance at the absorbance maximum (ε): MeOH

Structure (SMILES) | λmax [1] [nm] | specific absorbance at the absorbance maximum (ε) [2] | λmax(MeOH) [2] [nm]
COc1cc(OC)c(OC)cc1/C=C/C(=O)OC[C@@H](O)[C@H]1OC(=O)C(O)=C1O [Example 4, (R)-2-((R)-3,4-dihydroxy-5-oxo-2,5-dihydrofuran-2-yl)-2-hydroxyethyl (E)-3-(2,4,5-trimethoxyphenyl)acrylate] | 354 |  | 
CCCCC(CC)COC(=O)/C=C\c1ccc(OC)cc1 (stereo not drawn) [cis-EHMC] |  | 13,500 | 304
CCCCC(CC)COC(=O)/C=C/c1ccc(OC)cc1 (stereo not drawn) [trans-EHMC] |  | 24,550 | 309
